Source: patent US20100063020A1, “ORAL PHARMACEUTICAL FORMULATIONS AND METHODS FOR PRODUCING AND USING SAME” (priority 2004, published 2010)

Key:
[1] = Intrinsic dissolution of high melt and low melt forms of 17-AAG in ethanol; type: physicochemical
Protocol: The performance of an active pharmaceutical ingredient (i.e., dissolution rate) can be affected by polymorphic state. The intrinsic dissolution of the high melt and low melt forms of 17-AAG were determined in ethanol. Ethanol was chosen as the solvent since 17-AAG is soluble in ethanol.

[2] = Solvent stability of low melt form (slurry in H2O:EtOH 90:10); type: physicochemical
Protocol: 17-AAG may be prepared from geldanamycin by reacting with allyamine in dry THF under a nitrogen atmosphere. The crude product may be purified by slurrying in H2O:EtOH (90:10), and the washed crystals obtained have a melting point of 206-212° C. by capillary melting point technique. […] The two 17-AAG products are designated as the low melt form and high melt form.
MP=147-155° C. ^1 H NMR and HPLC are consistent with the desired product.

[3] = in vitro; type: in vitro ADME; conditions: human, Caco-2
Text: The permeability of the pharmaceutical active ingredient across the gastrointestinal membrane may be estimated from it permeability across a Caco-2 cell monolayer using standard techniques (e.g. Chong S et al. Pharmaceutical Research 1997 14(12):1835-1837). The reference is hereby expressly incorporated by reference.
Propranolol was included in each assay as a high permeability control compound.

Papp [3] [×10⁻⁶ cm/s] | Structure (SMILES) | intrinsic dissolution rate [1] [mg/cm^2/min] | percent higher intrinsic dissolution rate of low melt form vs high melt form [1] [%] | conversion of polymorphic form on slurrying [2]
– | C=CCNC1=C2C[C@@H](C)C[C@H](OC)[C@H](O)[C@@H](C)/C=C(\C)[C@H](OC(N)=O)[C@@H](OC)/C=C\C=C(/C)C(=O)NC(=CC1=O)C2=O [low melt form of 17-AAG, 17-allylamino-17-demethoxygeldanamycin] | 0.885 | 60 | no conversion to the high melt form was observed
– | C=CCNC1=C2C[C@@H](C)C[C@H](OC)[C@H](O)[C@@H](C)/C=C(\C)[C@H](OC(N)=O)[C@@H](OC)/C=C\C=C(/C)C(=O)NC(=CC1=O)C2=O [high melt form, 17-allylamino-17-demethoxygeldanamycin] | 0.550 | – | –
16 | CC(C)NCC(O)COc1cccc2ccccc12 (centres unmarked) [propranolol] | – | – | –
